The target in test [1] is T1, NHE (Na^+ /H^+ exchanger) (Rattus norvegicus, UniProt P26431).
T1 construct: A rat mesenteric artery was isolated; from tissue; host or cells: isolated rat mesenteric artery segments
As to the kind of experiment: NHE inhibitory activity (recovery of the pH in cells after acid load, BCECF, rat mesenteric artery). The class given is cell-based. The note with it: read-out: Percent NHE inhibition (%); for inhibition at 0.1 µM: Conc. 0.1 μM; for inhibition at 1 µM: Conc. 1 μM. The procedure: The NHE inhibitory activity was measured by the following method using a pH in cells as an index.
A rat mesenteric artery was isolated, and was loaded with a pH-sensitive dye BCECF. Subsequently, the tissue segments were mounted in a bath of an intracellular ion concentration measurement device (CAF-110, manufactured by Japan Spectral Co., Ltd.). The pH in cells was measured in terms of a ratio of fluorescent intensities through 2-wavelength excitation of 495 nm (pH-sensitive wavelength)/450 nm (pH-non-sensitive wavelength).
The pH in cells was shifted into acid through pretreatment with 20 mM ammonium chloride to activate NHE. At this time, when Na^+ ions were absent in an external solution, the intracellular acidosis was maintained. When Na^+ ions were present in an external solution, the pH in cells was recovered to a control value. This recovery of the pH in cells was ascribable to the activation of NHE. The NHE inhibitory activity of the medication was examined depending on whether or not this recovery was suppressed. The percent NHE inhibition was calculated from a change in pH (ΔpH) measured by the above-mentioned method using the following formula.
Percent NHE inhibition (%)={1-ΔpH (in the presence of a medication)/ΔpH (in the absence of a medication)}×100
This test was conducted by the method of C. D. Foster et al. [Am. J. Physiol., 262, 31, H1651-H1655 (1992)]. For comparison, the test was conducted with respect to guanidinocarbonylisoquinoline derivatives described in JP A 6-211799 (Family: EP590455).

In another test the test system is rat. As to the kind of experiment: Effect on ischemic arrhythmia in the rat (left coronary artery ligated for 30 minutes). The class given is in vivo. Particulars: 1 mg/kg i.v., five minutes before the ligation; rats with arrhythmia / rats. The procedure: A rat was anesthetized with pentobarbital, and the left chest was opened under artificial respiration. Then, the left coronary artery was ligated for 30 minutes. The effect of the test compound on ischemic arrhythmia was examined. The test agent was administered intravenously (i.v.) five minutes before the ligation. The arrhythmias were evaluated according to the guidelines of the Lambeth conventions [Cardiovasc. Res., 22, 447-455 (1988)].

For orientation: inhibition means the relative decrease from the control value, in per cent.

T1 sequence (P26431 whole entry): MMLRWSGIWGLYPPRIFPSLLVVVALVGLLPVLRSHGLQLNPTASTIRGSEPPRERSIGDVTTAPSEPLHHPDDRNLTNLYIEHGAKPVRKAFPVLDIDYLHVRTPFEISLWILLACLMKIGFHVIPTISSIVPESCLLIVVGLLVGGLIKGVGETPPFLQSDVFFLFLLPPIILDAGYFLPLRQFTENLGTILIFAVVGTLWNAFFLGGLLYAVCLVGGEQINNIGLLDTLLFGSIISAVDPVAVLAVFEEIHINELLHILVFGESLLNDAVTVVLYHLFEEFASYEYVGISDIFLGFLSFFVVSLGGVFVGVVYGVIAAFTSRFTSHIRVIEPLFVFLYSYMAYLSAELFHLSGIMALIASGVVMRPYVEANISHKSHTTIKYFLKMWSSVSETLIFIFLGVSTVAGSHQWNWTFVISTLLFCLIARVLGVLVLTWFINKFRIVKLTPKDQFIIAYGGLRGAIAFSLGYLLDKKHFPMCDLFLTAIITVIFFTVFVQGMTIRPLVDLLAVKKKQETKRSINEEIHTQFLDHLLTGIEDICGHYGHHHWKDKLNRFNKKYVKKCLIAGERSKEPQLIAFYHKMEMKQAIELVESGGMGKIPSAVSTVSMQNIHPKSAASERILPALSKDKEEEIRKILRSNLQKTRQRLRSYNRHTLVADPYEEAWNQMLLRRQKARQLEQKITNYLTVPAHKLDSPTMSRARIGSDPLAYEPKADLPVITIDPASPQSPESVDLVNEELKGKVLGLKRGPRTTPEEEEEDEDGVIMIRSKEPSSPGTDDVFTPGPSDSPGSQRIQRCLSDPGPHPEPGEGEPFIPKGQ
T1 sequence (P61023 2-195 partner limits assumed): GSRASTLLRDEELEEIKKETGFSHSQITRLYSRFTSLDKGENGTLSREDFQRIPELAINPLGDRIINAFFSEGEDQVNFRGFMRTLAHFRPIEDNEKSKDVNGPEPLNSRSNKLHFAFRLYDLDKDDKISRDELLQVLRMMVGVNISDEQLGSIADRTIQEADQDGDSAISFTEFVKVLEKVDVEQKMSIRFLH

In the case of `NC(N)=NC(=O)c1cc(-c2ccccc2)nc2ccccc12` [Example 1, 2-phenylquinoline-4-carbonylguanidine], in test [1], the inhibition at 0.1 µM was found to be 5.2% and the inhibition at 1 µM stood at 52.8%.

Regarding `Cc1ccc(-c2cc(C(=O)N=C(N)N)c3ccccc3n2)cc1` [Example 2, 2-(4'-methylphenyl)quinoline-4-carbonylguanidine], in test [1], the inhibition at 0.1 µM turned out to be 10.6% and the inhibition at 1 µM worked out at 41.4%.

In the case of `Cc1cccc(-c2cc(C(=O)N=C(N)N)c3ccccc3n2)c1` [Example 3, 2-(3'-methylphenyl)quinoline-4-carbonylguanidine], in test [1], the inhibition at 0.1 µM turned out to be 21.2% and the inhibition at 1 µM came out at 59.8%.

As for `Cc1ccccc1-c1cc(C(=O)N=C(N)N)c2ccccc2n1` [Example 4, 2-(2'-methylphenyl)quinoline-4-carbonylguanidine], in test [1], the inhibition at 0.1 µM worked out at 49.2% and the inhibition at 1 µM is 65.6%.

Turning to `CC(C)c1ccccc1-c1cc(C(=O)N=C(N)N)c2ccccc2n1` [Example 5, 2-(2'-isopropylphenyl)quinoline-4-carbonylguanidine], in test [1], the inhibition at 0.1 µM amounted to 29.3% and the inhibition at 1 µM stood at 42.3%.

For `Cc1ccc(-c2cc(C(=O)N=C(N)N)c3ccccc3n2)c(C)c1` [Example 6, 2-(2',4'-dimethylphenyl)quinoline-4-carbonylguanidine], in test [1], the inhibition at 0.1 µM is 36.4% and the inhibition at 1 µM amounted to 55.3%.

Consider `Cc1ccc(-c2cc(C(=O)N=C(N)N)c3ccccc3n2)cc1C` [Example 7, 2-(3',4'-dimethylphenyl)quinoline-4-carbonylguanidine], for which, in test [1], the inhibition at 0.1 µM was 33.1% and the inhibition at 1 µM came to 38.8%.

For the compound `Cc1cc(C)c(-c2cc(C(=O)N=C(N)N)c3ccccc3n2)c(C)c1` [Example 8, 2-(2',4',6'-trimethylphenyl)quinoline-4-carbonylguanidine], in test [1], the inhibition at 0.1 µM is 23.7% and the inhibition at 1 µM is 36.3%.

As to `NC(N)=NC(=O)c1cc(-c2ccccc2C(F)(F)F)nc2ccccc12` [Example 11, 2-(2'-trifluoromethylphenyl)quinoline-4-carbonylguanidine], in test [1], the inhibition at 0.1 µM stood at 22.7% and the inhibition at 1 µM was 46.1%.

As for `NC(N)=NC(=O)c1cc(-c2ccc(F)cc2)nc2ccccc12` [Example 13, 2-(4'-fluorophenyl)quinoline-4-carbonylguanidine], in test [1], the inhibition at 0.1 µM is 14.4% and the inhibition at 1 µM amounted to 39.8%.

On to `NC(N)=NC(=O)c1cc(-c2ccccc2Cl)nc2ccccc12` [Example 14, 2-(2'-chlorophenyl)quinoline-4-carbonylguanidine], for which, in test [1], the inhibition at 0.1 µM is 28.8% and the inhibition at 1 µM stood at 34.3%.

Regarding `NC(N)=NC(=O)c1cc(-c2cccc([N+](=O)[O-])c2)nc2ccccc12` [Example 19, 2-(3'-nitrophenyl)quinoline-4-carbonylguanidine], in test [1], the inhibition at 0.1 µM was 22.3% and the inhibition at 1 µM worked out at 35.6%.

With `NC(N)=NC(=O)c1cc(-c2cccc(N)c2)nc2ccccc12` [Example 20, 2-(3'-aminophenyl)quinoline-4-carbonylguanidine], in test [1], the inhibition at 0.1 µM was 36.2% and the inhibition at 1 µM was found to be 42.2%.

With `Cc1c(-c2ccccc2)nc2ccccc2c1C(=O)N=C(N)N` [Example 21, 2-phenyl-3-methylquinoline-4-carbonylguanidine], in test [1], the inhibition at 0.1 µM stood at 1.5% and the inhibition at 1 µM was found to be 45%.

Consider `Cc1ccc2nc(-c3ccccc3)cc(C(=O)N=C(N)N)c2c1` [Example 22, 2-phenyl-6-methylquinoline-4-carbonylguanidine], for which, in test [1], the inhibition at 0.1 µM worked out at 28.9% and the inhibition at 1 µM worked out at 57.9%.

With `Cc1ccc2c(C(=O)N=C(N)N)cc(-c3ccccc3)nc2c1` [Example 23, 2-phenyl-7-methylquinoline-4-carbonylguanidine], in test [1], the inhibition at 0.1 µM is 2.8% and the inhibition at 1 µM amounted to 49.8%.

On to `Cc1cccc2c(C(=O)N=C(N)N)cc(-c3ccccc3)nc12` [Example 24, 2-phenyl-8-methylquinoline-4-carbonylguanidine], for which, in test [1], the inhibition at 0.1 µM was determined as 8.1% and the inhibition at 1 µM is 50%.

On to `NC(N)=NC(=O)c1cc(-c2ccccc2)nc2cccc(Cl)c12` [Example 28, 2-phenyl-5-chloroquinoline-4-carbonylguanidine], for which, in test [1], the inhibition at 0.1 µM came out at 33.7% and the inhibition at 1 µM came out at 63.3%.

On to `NC(N)=NC(=O)c1cc(-c2ccccc2)nc2ccc(Cl)cc12` [Example 29, 2-phenyl-6-chloroquinoline-4-carbonylguanidine], for which, in test [1], the inhibition at 0.1 µM was found to be 0% and the inhibition at 1 µM amounted to 38.6%.

For `NC(N)=NC(=O)c1cc(-c2ccccc2)nc2c(Cl)cccc12` [Example 31, 2-phenyl-8-chloroquinoline-4-carbonylguanidine], in test [1], the inhibition at 0.1 µM was 12% and the inhibition at 1 µM was found to be 57%.

As for `Cc1cc(Cl)cc2c(C(=O)N=C(N)N)cc(-c3ccccc3)nc12` [Example 32, 2-phenyl-6-chloro-8-methylquinoline-4-carbonylguanidine], in test [1], the inhibition at 0.1 µM was 28.6% and the inhibition at 1 µM was 35.7%.

On to `COc1ccc2c(C(=O)N=C(N)N)cc(-c3ccccc3)nc2c1` [Example 34, 2-phenyl-7-methoxyquinoline-4-carbonylguanidine], for which, in test [1], the inhibition at 0.1 µM came to 29.8% and the inhibition at 1 µM is 53%.

Take `COc1cccc2c(C(=O)N=C(N)N)cc(-c3ccccc3)nc12` [Example 35, 2-phenyl-8-methoxyquinoline-4-carbonylguanidine]: in test [1], the inhibition at 0.1 µM was 47.4% and the inhibition at 1 µM turned out to be 63.6%.

Take `COc1cc(OC)c2c(C(=O)N=C(N)N)cc(-c3ccccc3)nc2c1` [Example 36, 2-phenyl-5,7-dimethoxyquinoline-4-carbonylguanidine]: in the test on rat, the “Incidence of arrhythmia, VF (ventricular fibrillation)” value is reported as 0/4 and the “Incidence of arrhythmia, VT (ventricular tachycardia)” value was 2/4. Also, in test [1], the inhibition at 0.1 µM amounted to 53.2% and the inhibition at 1 µM turned out to be 69.9%.

As to `COc1cc(OC)c2c(C(=O)N=C(N)N)cc(-c3ccccc3C)nc2c1` [Example 37, 2-(2'-methylphenyl)-5,7-dimethoxyquinoline-4-carbonylguanidine], in the test with rat, the “Incidence of arrhythmia, VF (ventricular fibrillation)” value is 0/5 and the “Incidence of arrhythmia, VT (ventricular tachycardia)” value was 3/5. In addition, in test [1], the inhibition at 0.1 µM is 70.8% and the inhibition at 1 µM was found to be 84.2%.

Regarding `COc1cc2nc(-c3ccccc3C)cc(C(=O)N=C(N)N)c2cc1OC` [Example 39, 2-(2'-methylphenyl)-6,7-dimethoxyquinoline-4-carbonylguanidine], in test [1], the inhibition at 0.1 µM was found to be 3.4% and the inhibition at 1 µM turned out to be 41.5%.

`COc1cc(OC)c2nc(-c3ccccc3)cc(C(=O)N=C(N)N)c2c1` [Example 40, 2-phenyl-6,8-dimethoxyquinoline-4-carbonylguanidine]: in test [1], the inhibition at 0.1 µM is 18.3% and the inhibition at 1 µM turned out to be 31%.

Consider `COc1ccc2c(C(=O)N=C(N)N)cc(-c3ccccc3C)nc2c1OC` [Example 43, 2-(2'-methylphenyl)-7,8-dimethoxyquinoline-4-carbonylguanidine], for which, in test [1], the inhibition at 0.1 µM was 28% and the inhibition at 1 µM was found to be 37.6%.

Take `COCCOc1cccc2c(C(=O)N=C(N)N)cc(-c3ccccc3)nc12` [Example 44, 2-phenyl-8-methoxyethyloxyquinoline-4-carbonylguanidine]: in test [1], the inhibition at 0.1 µM amounted to 28.4% and the inhibition at 1 µM amounted to 62.9%.

In the case of `COCOc1ccc2c(C(=O)N=C(N)N)cc(-c3ccccc3C)nc2c1` [Example 45, 2-(2'-methylphenyl)-7-methoxymethyloxyquinoline-4-carbonylguanidine], in test [1], the inhibition at 0.1 µM stood at 35% and the inhibition at 1 µM came to 46.5%.

On to `Cc1ccccc1-c1cc(C(=O)N=C(N)N)c2ccc(O)cc2n1` [Example 46, 2-(2'-methylphenyl)-7-hydroxyquinoline-4-carbonylguanidine], for which, in test [1], the inhibition at 0.1 µM was 39.3% and the inhibition at 1 µM is 48.8%.

As to `NC(N)=NC(=O)c1cc(-c2ccccc2)nc2c(N)cccc12` [Example 48, 2-phenyl-8-aminoquinoline-4-carbonylguanidine], in test [1], the inhibition at 0.1 µM came out at 30.6% and the inhibition at 1 µM came out at 41.7%.

Consider `CC(=O)Nc1cccc2c(C(=O)N=C(N)N)cc(-c3ccccc3)nc12` [Example 49, 2-phenyl-8-acetylaminoquinoline-4-carbonylguanidine], for which, in test [1], the inhibition at 0.1 µM turned out to be 20.8% and the inhibition at 1 µM was determined as 51.2%.

Consider `CS(=O)(=O)Nc1cccc2c(C(=O)N=C(N)N)cc(-c3ccccc3)nc12` [Example 50, 2-phenyl-8-methanesulfonylaminoquinoline-4-carbonylguanidine], for which, in test [1], the inhibition at 0.1 µM was 46.2% and the inhibition at 1 µM is 66.2%.
